# Laboratory results from patent US20250136606A1, “MODULATORS OF TRPML, THEIR COMPOSITIONS AND METHODS OF USE” (Caraway Therapeutics, Inc., priority 2021, published 2025).
# Read-outs that look alike come from different tables or passages of the source.
# Tests used:
# Type in all cases: cell-based
# [1] = target: T1, TRPML2 (Homo sapiens, UniProt Q8IZK6); experiment: Fluorescent TRPML2 assay (performed as for TRPML1, substituting the TRPML2 subtype); conditions: fluorescent calcium assay
# T1 construct: expressed in transfected cells
# T1 sequence (Q8IZK6 1-566): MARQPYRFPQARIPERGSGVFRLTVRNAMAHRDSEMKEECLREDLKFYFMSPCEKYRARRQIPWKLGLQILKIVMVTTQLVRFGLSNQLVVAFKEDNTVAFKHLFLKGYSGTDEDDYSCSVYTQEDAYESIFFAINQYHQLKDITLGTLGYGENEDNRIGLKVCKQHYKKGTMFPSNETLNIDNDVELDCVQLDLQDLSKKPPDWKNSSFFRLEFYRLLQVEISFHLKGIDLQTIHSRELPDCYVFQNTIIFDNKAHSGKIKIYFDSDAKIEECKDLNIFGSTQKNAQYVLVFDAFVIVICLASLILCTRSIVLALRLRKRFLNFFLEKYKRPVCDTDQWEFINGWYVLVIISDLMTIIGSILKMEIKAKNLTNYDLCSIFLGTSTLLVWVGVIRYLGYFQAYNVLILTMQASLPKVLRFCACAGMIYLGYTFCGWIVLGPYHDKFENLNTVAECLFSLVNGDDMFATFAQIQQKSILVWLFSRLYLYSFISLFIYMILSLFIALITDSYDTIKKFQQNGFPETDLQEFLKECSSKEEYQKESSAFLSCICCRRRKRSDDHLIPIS
# Experimental: (§1) HEK-293 Trex cells were stably transfected with a construct consisting of the human coding sequence for TRPML1 cloned into the […] plasmid pCDNA5 T/O. Mutations were introduced into the TRPML1 sequence to facilitate expression on the cell surface (Silvia Vergarajauregui, Rosa Puertollano, Traffic. 2006 March; 7(3): 337-353). Briefly, the cells are cultured in 150 mm round tissue culture dishes containing 20 mL of media. The day before the assay the cells are rinsed with DPBS-Ca—Mg and then treated briefly with Trypsin-EDTA. The Trypsin-EDTA is diluted with growth media, and cells are counted. 38×10^6 cells are re-plated into 150 mm round tissue culture dishes in media containing 0.5 ug/mL doxycycline to induce expression of hTRPML1.
# (§2) The day of the experiment cells are lifted from the plates as above and collected by centrifugation. The cells are then suspended in dye loading buffer consisting of Ringer's solution supplemented with 0.1% Pluronic Acid and 1 micromolar Fluo4-AM dye. Cells are loaded for ˜60 minutes in the dark with occasional mixing. The cells are collected by centrifugation, the loading media aspirated, and the cells resuspended in 25 mL Ringer's solution and incubated ˜60 minutes in the dark. The cells are again collected by centrifugation, rinsed in Ringer's Solution and resuspended to […] in modified Ringer's solution containing 10 mM calcium.
# (§3) Compounds are dissolved to a concentration of 10 millimolar with DMSO. Compound plates are created by dispensing compounds into 384 well black wall clear bottom plates (Greiner 781091). Positive and negative controls are included on each plate. Typically, different amounts of each compound are tested ranging from 100 nanoMoles (20 micromolar final concentration) decreasing in half-log steps to 31 picoMoles (6 nanomolar final concentration). Each concentration is typically tested in triplicate.
# (§4) 50 microliters of dye-loaded cells are dispensed into each well of the compound assay plate created above. The fluorescence in each well is then determined with an excitation wavelength of 480 nm and an emission wavelength of 540 nm using either a Molecular Devices SpectraMax multimode plate reader or a Hamamatsu FDSS/uCell plate imager.
# (§5) The resulting fluorescence for each well is exported as an ascii file and loaded into our LIMS for analysis. The percent activity of each compound at each concentration is determined by comparison to the positive and negative control wells included in each plate.
# (§6) TRPML2 and TRPML3 Assays Assays for TRPML2 and TRPML3 were performed as above for TRPML1, by substituting the appropriate TRPML2 or TRPML3 subtype for the TRPML1.
# (§7) EC50 values were calculated using a non-linear regression of Prism. In the table, “A” indicates an EC50 of less than 100 nM, “B” indicates an EC50 range from 100 nM to 500 nM; “C” indicates an EC50 range from 500 nM to 2 μM; and “D” indicates an EC50 greater than 2 μM.
# [2] = target: TRPML1 (Homo sapiens, UniProt Q9GZU1); experiment: Fluorescent TRPML1 assay (Fluo4-AM calcium fluorescence in doxycycline-induced HEK-293 Trex cells)
# Method in brief: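 hTRPML1 (mutated for cell-surface expression) in HEK-293 Trex, dox 0.5 ug/mL o/n; Fluo4-AM 1 uM ~60 min, then ~60 min de-esterification, dark; modified Ringer's + 10 mM Ca. Cmpds 20 uM–6 nM final, half-log, n=3. Ex480/Em540; % activity vs ctrls; EC50 by nonlinear regression.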
# [3] = target: T2, TRPML3 (Homo sapiens, UniProt Q8TDD5); experiment: Fluorescent TRPML3 assay (performed as for TRPML1, substituting the TRPML3 subtype)
# T2 construct: expressed in transfected cells
# T2 sequence (Q8TDD5 1-553): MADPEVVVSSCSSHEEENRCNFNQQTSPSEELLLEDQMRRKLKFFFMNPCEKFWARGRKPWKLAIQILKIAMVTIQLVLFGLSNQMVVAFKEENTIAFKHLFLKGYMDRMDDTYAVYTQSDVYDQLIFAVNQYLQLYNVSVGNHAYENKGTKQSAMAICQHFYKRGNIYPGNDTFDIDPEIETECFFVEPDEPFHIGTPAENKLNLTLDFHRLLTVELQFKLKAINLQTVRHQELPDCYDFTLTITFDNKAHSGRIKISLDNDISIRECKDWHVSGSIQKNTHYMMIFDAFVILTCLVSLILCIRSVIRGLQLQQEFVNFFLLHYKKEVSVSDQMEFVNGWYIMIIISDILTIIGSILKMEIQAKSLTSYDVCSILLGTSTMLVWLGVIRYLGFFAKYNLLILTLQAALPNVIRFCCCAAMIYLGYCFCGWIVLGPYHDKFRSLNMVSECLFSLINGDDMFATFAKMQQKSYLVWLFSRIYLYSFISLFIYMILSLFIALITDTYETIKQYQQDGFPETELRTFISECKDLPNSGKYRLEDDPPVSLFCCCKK
# Experimental: as §1, §2, §3, §4, §5, §6, §7
# TRPML1, sequence (Q9GZU1 whole entry L15A/L16A/L577A/L578A, form open): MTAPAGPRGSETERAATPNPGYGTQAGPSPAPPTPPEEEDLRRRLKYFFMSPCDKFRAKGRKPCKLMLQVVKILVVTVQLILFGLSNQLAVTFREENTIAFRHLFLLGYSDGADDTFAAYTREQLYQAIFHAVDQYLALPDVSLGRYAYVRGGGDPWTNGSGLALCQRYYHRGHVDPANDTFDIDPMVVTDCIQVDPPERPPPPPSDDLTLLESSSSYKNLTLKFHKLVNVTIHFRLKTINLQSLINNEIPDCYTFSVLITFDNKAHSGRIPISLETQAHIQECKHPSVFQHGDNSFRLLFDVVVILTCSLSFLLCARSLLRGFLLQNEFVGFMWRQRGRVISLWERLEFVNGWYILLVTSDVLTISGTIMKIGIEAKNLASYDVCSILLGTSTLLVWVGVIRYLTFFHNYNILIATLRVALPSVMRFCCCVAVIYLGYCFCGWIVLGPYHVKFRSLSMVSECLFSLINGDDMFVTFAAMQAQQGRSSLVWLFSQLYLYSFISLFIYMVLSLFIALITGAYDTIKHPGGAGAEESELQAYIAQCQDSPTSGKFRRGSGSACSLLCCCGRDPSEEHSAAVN
SMILES,EC50 [1] [nM],EC50 ([2]; fluorescent calcium assay) [nM],EC50 ([3]; fluorescent calcium assay) [nM],EC50 [2] [nM],EC50 [3] [nM]
"CC(C)(C)OC(=O)N1CCN(c2ncnc3c2c(C2CC2)cn3-c2cc(F)cc(F)c2)C[C@H]1CF (single isomer, unassigned) [Compound 269]",500 to 2000,100 to 500,< 100,,
"C[C@H]1CN(C(=O)OC(C)(C)C)CCN1c1ncnc2c1c(-c1ccccc1)cn2-c1cc(C#N)ccn1 [Compound 320, tert-butyl (S)-4-(7-(4-cyanopyridin-2-yl)-5-phenyl-7H-pyrrolo[2,3-d]pyrimidin-4-yl)-3-methylpiperazine-1-carboxylate]",100 to 500,< 100,,,
"COC(=O)N1CCN(c2ncnc3c2c(-c2ccccc2F)cn3-c2cc(C#N)ccn2)[C@@H](C)C1 [Compound 351, methyl (S)-4-(7-(4-cyanopyridin-2-yl)-5-(2-fluorophenyl)-7H-pyrrolo[2,3-d]pyrimidin-4-yl)-3-methylpiperazine-1-carboxylate]",500 to 2000,< 100,,,
"C[C@@H]1CN(c2ncnc3c2c(C(F)F)cn3-c2cc(F)cc(F)c2)[C@@H](C)CN1C(=O)OC1(C)CC1 [Compound 607, 1-methylcyclopropyl (2R,5S)-4-(5-(difluoromethyl)-7-(3,5-difluorophenyl)-7H-pyrrolo[2,3-d]pyrimidin-4-yl)-2,5-dimethylpiperazine-1-carboxylate]",,,,100 to 500,500 to 2000
"C[C@@H]1CN(c2ncnc3c2c(C(F)F)cn3-c2cc(F)ccn2)[C@@H](C)CN1C(=O)OC1(C)CC1 [Compound 611, 1-methylcyclopropyl (2R,5S)-4-(5-(difluoromethyl)-7-(4-fluoropyridin-2-yl)-7H-pyrrolo[2,3-d]pyrimidin-4-yl)-2,5-dimethylpiperazine-1-carboxylate]",,,,100 to 500,100 to 500
"C[C@@H]1CN(c2ncnc3c2c(C(F)F)cn3-c2cc(C#N)ccn2)[C@@H](C)CN1C(=O)OC1(C)CC1 [Compound 613, 1-methylcyclopropyl (2R,5S)-4-(7-(4-cyanopyridin-2-yl)-5-(difluoromethyl)-7H-pyrrolo[2,3-d]pyrimidin-4-yl)-2,5-dimethylpiperazine-1-carboxylate]",,,,< 100,< 100
"C[C@@H]1CN(c2ncnc3c2c(C(F)(F)F)cn3C2CCCC2)[C@@H](C)CN1C(=O)OC(C)(C)C [Compound 626, tert-butyl (2R,5S)-4-(7-cyclopentyl-5-(trifluoromethyl)-7H-pyrrolo[2,3-d]pyrimidin-4-yl)-2,5-dimethylpiperazine-1-carboxylate]",,,,< 100,500 to 2000
"C[C@@H]1CN(c2ncnc3c2c(C(F)(F)F)cn3C2CCOCC2)[C@@H](C)CN1C(=O)OC(C)(C)C [Compound 630, tert-butyl (2R,5S)-2,5-dimethyl-4-(7-(tetrahydro-2H-pyran-4-yl)-5-(trifluoromethyl)-7H-pyrrolo[2,3-d]pyrimidin-4-yl)piperazine-1-carboxylate]",,,,500 to 2000,> 2000
"C[C@@H]1CN(c2ncnc3c2c(C(F)(F)F)cn3[C@H]2CCCOC2)[C@@H](C)CN1C(=O)OC(C)(C)C [Compound 631, tert-butyl (2R,5S)-2,5-dimethyl-4-(7-((S)-tetrahydro-2H-pyran-3-yl)-5-(trifluoromethyl)-7H-pyrrolo[2,3-d]pyrimidin-4-yl)piperazine-1-carboxylate]",,,,500 to 2000,> 2000
"C[C@@H]1CN(c2ncnc3c2c(C(F)(F)F)cn3[C@@H]2CCCOC2)[C@@H](C)CN1C(=O)OC(C)(C)C [Compound 632, tert-butyl (2R,5S)-2,5-dimethyl-4-(7-((R)-tetrahydro-2H-pyran-3-yl)-5-(trifluoromethyl)-7H-pyrrolo[2,3-d]pyrimidin-4-yl)piperazine-1-carboxylate]",,,,500 to 2000,> 2000
C[C@@H]1CN(c2ncnc3c2c(C(F)F)cn3C2CCC(C#N)C2)[C@@H](C)CN1C(=O)OC(C)(C)C (stereo partly drawn) [Compound 634],,,,500 to 2000,500 to 2000

# Results, then the compound that gave them:
EC50 [1] [nM],EC50 ([2]; fluorescent calcium assay) [nM],EC50 ([3]; fluorescent calcium assay) [nM],EC50 [2] [nM],EC50 [3] [nM],SMILES
500 to 2000,100 to 500,100 to 500,,,"Cc1cncc(-n2cc(C3CC3)c3c(N4CCN(C(=O)OC(C)(C)C)[C@@H](C)C4)ncnc32)c1 (single isomer, unassigned) [Compound 174]"
> 2000,500 to 2000,500 to 2000,,,"Cc1cncc(-n2cc(C3CC3)c3c(N4CCN(C(=O)OC(C)(C)C)[C@H](C)C4)ncnc32)c1 (single isomer, unassigned) [Compound 175]"
,,,100 to 500,100 to 500,"Cc1c(C(F)(F)F)c2c(N3C[C@@H](C)N(C(=O)OC(C)(C)C)C[C@@H]3C)ncnc2n1-c1cc(C#N)ccn1 [Compound 531, tert-butyl (2R,5S)-4-(7-(4-cyanopyridin-2-yl)-6-methyl-5-(trifluoromethyl)-7H-pyrrolo[2,3-d]pyrimidin-4-yl)-2,5-dimethylpiperazine-1-carboxylate]"
,,,500 to 2000,500 to 2000,"C[C@@H]1CN(c2ncnc3c2c(C(F)F)cn3C2CCCC2)[C@@H](C)CN1C(=O)OC(C)(C)C [Compound 628, tert-butyl (2R,5S)-4-(7-cyclopentyl-5-(difluoromethyl)-7H-pyrrolo[2,3-d]pyrimidin-4-yl)-2,5-dimethylpiperazine-1-carboxylate]"
,,,> 2000,> 2000,"Cc1cn(-c2cncnc2)c2ncnc(N3C[C@@H](C)N(C(=O)OC(C)(C)C)C[C@@H]3C)c12 [Compound 674, tert-butyl (2R,5S)-2,5-dimethyl-4-(5-methyl-7-(pyrimidin-5-yl)-7H-pyrrolo[2,3-d]pyrimidin-4-yl)piperazine-1-carboxylate]"
,,,500 to 2000,500 to 2000,"Cc1cn(-c2cncnc2)c2ncnc(N3CCN(C(=O)OC(C)(C)C)C[C@@H]3C)c12 [Compound 691, tert-butyl (S)-3-methyl-4-(5-methyl-7-(pyrimidin-5-yl)-7H-pyrrolo[2,3-d]pyrimidin-4-yl)piperazine-1-carboxylate]"
,,,100 to 500,< 100,"Cc1cn(-c2cncc(C#N)c2)c2ncnc(N3CCN(C(=O)OC(C)(C)C)C[C@@H]3C)c12 [Compound 694, tert-butyl (S)-4-(7-(5-cyanopyridin-3-yl)-5-methyl-7H-pyrrolo[2,3-d]pyrimidin-4-yl)-3-methylpiperazine-1-carboxylate]"
